# Laboratory results: patent US7468375B2 (Pfizer Inc., priority 2004, dated 2008)
# Like-named read-outs stand apart in the source and are kept apart here.
# Legend:
# [1] = molecular target: T1, Full-length wild type HIV-1 integrase (SF1) (Human immunodeficiency virus type 1 group M subtype B, UniProt P04585); test: Integrase strand-transfer scintillation proximity assay; format: biochemical; conditions: 50 min at 37° C., 246 nM integrase, 50 nM host DNA
# T1 construct: made in house; host or cells: E. coli BL21 (DE3)
# How it was run: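 Recombinant full-length wild-type HIV-1 integrase (aa 1-288), E. coli-expressed, tested on biotinylated pre-processed U5 LTR viral ds-DNA with CA overhang bound to streptavidin SPA beads. [3H]-thymidine-labelled host ds-DNA serves as target; strand transfer read by scintillation proximity. A 3′ di-deoxy viral DNA control checks non-specific binding.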
# [2] = test system: RF strain of HIV-1 in CEM-SS cells; test: HIV-1 cell protection assay (XTT dye reduction); format: cell-based; conditions: Human immunodeficiency virus 1, CEM-SS, 144 h
# How it was run: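 CEM-SS cells infected with HIV-1 RF (moi 0.025–0.819) or mock-infected, 2×10^4 cells/well with half-log compound dilutions for six days. Viability by XTT/PMS reduction (4 h), absorbance 450 nm, as % of uninfected untreated cells. Therapeutic index = CC50/EC50.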
# [3] = strand transfer, read-out: IC50
# [4] = HIV-1 RF, CEM-SS cells, XTT dye reduction, six days, read-out: EC50
compound,measurement,setting,value
"CC(C)(C)[C@@H](CO)NCc1cn(Cc2ccc(F)cc2F)c2cnc(C(=O)NO)cc12 [Example 87, 1-(2,4-Difluorobenzyl)-N-hydroxy-3-({[(1S)-1-(hydroxymethyl)-2,2-dimethylpropyl]amino}methyl)-1H-pyrrolo[2,3-c]pyridine-5-carboxamide]",IC50,[1]; [3],814 nM
same,EC50,[2]; [4],67 nM
"O=C(NO)c1cc2c(CNCc3ccc(C(F)(F)F)nc3)cn(Cc3ccc(F)cc3F)c2cn1 [Example 88, 1-(2,4-Difluorobenzyl)-N-hydroxy-3-[({[6-(trifluoromethyl)pyridin-3-yl]methyl}amino)methyl]-1H-pyrrolo[2,3-c]pyridine-5-carboxamide]",IC50,[1]; [3],238 nM
same,EC50,[2]; [4],16 nM
"CN1CCC(NCc2cn(Cc3ccc(F)cc3F)c3cnc(C(=O)NO)cc23)CC1 [Example 89, 1-(2,4-Difluorobenzyl)-N-hydroxy-3-{[(1-methylpiperidin-4-yl)amino]methyl}-1H-pyrrolo[2,3-c]pyridine-5-carboxamide]",IC50,[1]; [3],708 nM
same,EC50,[2]; [4],52 nM
"COc1ncccc1NCc1cn(Cc2ccc(F)cc2F)c2cnc(C(=O)NO)cc12 [Example 90, 1-(2,4-Difluorobenzyl)-N-hydroxy-3—[(2-methoxypyridin-3-yl)amino-methyl]-1H-pyrrolo[2,3-c]pyridine-5-carboxamide]",IC50,[1]; [3],212 nM
same,EC50,[2]; [4],18 nM
"O=C(NO)c1cc2c(CNC3CCOCC3)cn(Cc3ccc(F)cc3F)c2cn1 [Example 91, 1-(2,4-Difluorobenzyl)-N-hydroxy-3-[(tetrahydro-2H-pyran-4-ylamino)methyl]-1H-pyrrolo[2,3-c]pyridine-5-carboxamide]",IC50,[1]; [3],519 nM
same,EC50,[2]; [4],28 nM
"O=C(NO)c1cc2c(CNCC34CCCN3CCC4)cn(Cc3ccc(F)cc3F)c2cn1 [Example 92, 1-(2,4-Difluorobenzyl)-N-hydroxy-3-{[(tetrahydro-1H-pyrrolizin-7a(5H)-ylmethyl)amino]methyl}-1H-pyrrolo[2,3-c]pyridine-5-carboxamide]",IC50,[1]; [3],425 nM
same,EC50,[2]; [4],70 nM
"CN(Cc1cnn(-c2ccccc2)c1)Cc1cn(Cc2ccc(F)cc2F)c2cnc(C(=O)NO)cc12 [Example 93, 1-(2,4-Difluorobenzyl)-N-hydroxy-3-({methyl[(1-phenyl-1H-pyrazol-4-yl)methyl]amino}methyl)-1H-pyrrolo[2,3-c]pyridine-5-carboxamide]",IC50,[1]; [3],187 nM
same,EC50,[2]; [4],71 nM
"O=C(NO)c1cc2c(CNCc3ccc(OC(F)F)cc3)cn(Cc3ccc(F)cc3F)c2cn1 [Example 94, 1-(2,4-Difluorobenzyl)-3-({[4-(difluoromethoxy)benzyl]amino}methyl)-N-hydroxy-1H-pyrrolo[2,3-c]pyridine-5-carboxamide]",IC50,[1]; [3],288 nM
same,EC50,[2]; [4],26 nM
"CN(CCS(C)(=O)=O)Cc1cn(Cc2ccc(F)cc2F)c2cnc(C(=O)NO)cc12 [Example 95, 1-(2,4-difluorobenzyl)-N-hydroxy-3-({methyl[2-(methylsulfonyl)ethyl]amino}methyl)-1H-pyrrolo[2,3-c]pyridine-5-carboxamide]",IC50,[1]; [3],127 nM
same,EC50,[2]; [4],17 nM
"O=C(NO)c1cc2c(CNCCC3CCOCC3)cn(Cc3ccc(F)cc3F)c2cn1 [Example 96, 1-(2,4-Difluorobenzyl)-N-hydroxy-3-({[2-(tetrahydro-2H-pyran-4-yl)ethyl]amino}methyl)-1H-pyrrolo[2,3-c]pyridine-5-carboxamide]",IC50,[1]; [3],511 nM
same,EC50,[2]; [4],30 nM
"Cc1ccc2c(c1)C(NCc1cn(Cc3ccc(F)cc3F)c3cnc(C(=O)NO)cc13)CCO2 (stereo not shown) [Example 98, 1-(2,4-difluorobenzyl)-N-hydroxy-3-{[(6-methyl-3,4-dihydro-2H-chromen-4-yl)amino]methyl}-1H-pyrrolo[2,3-c]pyridine-5-carboxamide]",IC50,[1]; [3],256 nM
same,EC50,[2]; [4],100 nM
"O=C(NO)c1cc2c(CNCc3n[nH]c4c3CCC4)cn(Cc3ccc(F)cc3F)c2cn1 [Example 99, 1-(2,4-Difluorobenzyl)-N-hydroxy-3-{[(1,4,5,6-tetrahydrocyclopenta[c]pyrazol-3-ylmethyl)amino]methyl}-1H-pyrrolo[2,3-c]pyridine-5-carboxamide]",IC50,[1]; [3],277 nM
same,EC50,[2]; [4],31 nM
"Cc1nnc(CCNCc2cn(Cc3ccc(F)cc3F)c3cnc(C(=O)NO)cc23)[nH]1 [Example 100, 1-(2,4-Difluorobenzyl)-N-hydroxy-3-({[2-(5-methyl-4H-1,2,4-triazol-3-yl)ethyl]amino}methyl)-1H-pyrrolo[2,3-c]pyridine-5-carboxamide]",IC50,[1]; [3],270 nM
same,EC50,[2]; [4],10000 nM
"O=C(CC(NCc1cn(Cc2ccc(F)cc2F)c2cnc(C(=O)NO)cc12)C1CC1)NC1CC1 (stereo not shown) [Example 101, 3-({[1-Cyclopropyl-3-(cyclopropylamino)-3-oxopropyl]amino}methyl)-1-(2,4-difluorobenzyl)-N-hydroxy-1H-pyrrolo[2,3-c]pyridine-5-carboxamide]",IC50,[1]; [3],472 nM
same,EC50,[2]; [4],73 nM
"O=C1CN(Cc2cn(Cc3ccc(F)cc3)c3cnc(C(=O)NOCc4ccccc4)cc23)CCN1 [Example 102, N-(Benzyloxy)-1-(4-fluorobenzyl)-3-[(3-oxopiperazin-1-yl)methyl]-1H-pyrrolo[2,3-c]pyridine-5-carboxamide]",IC50,[1]; [3],810 nM
same,EC50,[2]; [4],33 nM
"C=CCONC(=O)c1cc2c(CN3CCNC(=O)C3)cn(Cc3ccc(F)cc3)c2cn1 [Example 103, N-(Allyloxy)-1-(4-fluorobenzyl)-3-[(3-oxopiperazin-1-yl)methyl]-1H-pyrrolo[2,3-c]pyridine-5-carboxamide]",IC50,[1]; [3],702 nM
same,EC50,[2]; [4],130 nM
"O=C1CN(Cc2cn(Cc3ccc(F)cc3)c3cnc(C(=O)NOc4ccccc4)cc23)CCN1 [Example 104, 1-(4-Fluorobenzyl)-3-[(3-oxopiperazin-1-yl)methyl]-N-phenoxy-1H-pyrrolo[2,3-c]pyridine-5-carboxamide]",IC50,[1]; [3],182 nM
same,EC50,[2]; [4],4.45 nM
O=C(NO)c1cc2c(COC[C@@H](O)CO)cn(Cc3ccc(F)cc3F)c2cn1 [Example 106],IC50,[1]; [3],12 nM
same,EC50,[2]; [4],66.3 nM
"O=C(NO)c1cc2c(COC[C@H](O)CO)cn(Cc3ccc(F)cc3F)c2cn1 [Example 107, 1-(2,4-Difluorobenzyl)-3-({[(2S)-2,3-dihydroxypropyl]oxy}methyl)-hydroxy-1H-pyrrolo[2,3-c]pyridine-5-carboxamide]",IC50,"[1]; IC50, strand transfer",3.4 nM
same,EC50,[2]; [4],32.2 nM
"COCCOCc1cn(Cc2ccc(F)cc2)c2cnc(C(=O)N(C)O)cc12 [Example 108, 1-(4-Fluorobenzyl)-N-hydroxy-3-[(2-methoxyethoxy)methyl]-N-methyl-1H-pyrrolo[2,3-c]pyridine-5-carboxamide]",IC50,[1]; [3],21.2 nM
same,EC50,[2],334 nM
"COCCOCc1cn(Cc2ccc(F)cc2)c2cnc(C(=O)NOC)cc12 [Example 109, 1-(4-Fluorobenzyl)-N-methoxy-3-[(2-methoxyethoxy)methyl]-1H-pyrrolo[2,3-c]pyridine-5-carboxamide]",IC50,[1]; [3],63 nM
same,EC50,[2]; [4],313 nM
"CN(O)C(=O)c1cc2c(COC[C@@H]3COC(C)(C)O3)cn(Cc3ccc(F)cc3)c2cn1 [Example 110, 3-({[(4R)-2,2-Dimethyl-1,3-dioxolan-4-yl]methoxy}methyl)-1-(4-fluorobenzyl)-N-hydroxy-N-methyl-1H-pyrrolo[2,3-c]pyridine-5-carboxamide]",IC50,[1]; [3],14 nM
same,EC50,[2],341 nM
"CC1(C)OC[C@H](COCc2cn(Cc3ccc(F)cc3)c3cnc(C(=O)NO)cc23)O1 [Example 111, 3-({[(4S)-2,2-dimethyl-1,3-dioxolan-4-yl]methoxy}methyl)-1-(4-fluorobenzyl)-N-hydroxy-1H-pyrrolo[2,3-c]pyridine-5-carboxamide]",IC50,[1]; [3],20 nM
same,EC50,[2]; [4],77.4 nM
CN(O)C(=O)c1cc2c(CN3CC[C@H]4CNC(=O)[C@H]4C3)cn(Cc3ccc(F)cc3F)c2cn1 [Example 113],IC50,[1]; [3],40 nM
same,EC50,[2]; [4],437 nM
"CN(O)C(=O)c1cc2c(CN3CCNC(=O)C3)cn(Cc3ccc(F)cc3)c2cn1 [Example 114, 1-(4-fluorobenzyl)-N-hydroxy-N-methyl-3-[(3-oxopiperazin-1-yl)methyl]-1H-pyrrolo[2,3-c] pyridine-5-carboxamide]",IC50,[1]; [3],150 nM
same,EC50,[2],351 nM
"CN(O)C(=O)c1cc2c(COCCN3CCCC3=O)cn(Cc3ccc(F)cc3)c2cn1 [Example 117, 1-(4-Fluorobenzyl)-N-hydroxy-N-methyl-3-{[2-(2-oxopyrrolidin-1-yl)ethoxy]methyl}-1H-pyrrolo[2,3-c]pyridine-5-carboxamide]",IC50,[1]; [3],200 nM
same,EC50,[2]; [4],401 nM
"CN(O)C(=O)c1cc2c(COC3CCOCC3)cn(Cc3ccc(F)cc3)c2cn1 [Example 118, 1-(4-Fluorobenzyl)-N-hydroxy-N-methyl-3-[(tetrahydro-2H-pyran-4-yloxy)methyl]-1H-pyrrolo[2,3-c]pyridine-5-carboxamide]",IC50,[1]; [3],57 nM
same,EC50,[2]; [4],313 nM
"C[C@@H](OCc1cn(Cc2ccc(F)cc2)c2cnc(C(=O)N(C)O)cc12)c1ccccc1 [Example 119, 1-(4-Fluorobenzyl)-N-hydroxy-N-methyl-3-{[(1R)-1-phenylethoxy]methyl}-1H-pyrrolo[2,3-c]pyridine-5-carboxamide]",IC50,[1]; [3],39 nM
same,EC50,[2]; [4],505 nM
"CCOCCOCc1cn(Cc2ccc(F)cc2)c2cnc(C(=O)N(C)O)cc12 [Example 120, 3-[(2-ethoxyethoxy)methyl]-1-(4-fluorobenzyl)-N-hydroxy-N-methyl-1H-pyrrolo[2,3-c]pyridine-5-carboxamide]",IC50,[1]; [3],57 nM
same,EC50,[2]; [4],307 nM
